{
  "source": "patent US20250352520A1",
  "about": "“USE OF DEXPRAMIPEXOLE FOR THE TREATMENT OF EOSINOPHILIC COPD” (Areteia Therapeutics, Inc., priority 2024, published 2025)",
  "key": {"[1]": {"settings": "150 mg BID; participants with ALS and EADs; cited from earlier work"}, "[2]": {"test_system": "eosinophils in blood and airways", "settings": "150 mg BID dexpramipexole dihydrochloride; up to approximately"}, "[3]": {"settings": "for SGRQ-C Questionnaire - Total Score, CFB (Change from baseline), Max / SGRQ-C Questionnaire - Total Score, CFB (Change from baseline), Mean ± SD / SGRQ-C Questionnaire - Total Score, CFB (Change from baseline), Median / SGRQ-C Questionnaire - Total Score, CFB (Change from baseline), Min / SGRQ-C Questionnaire - Total Score, CFB (Change from baseline), Q1 / SGRQ-C Questionnaire - Total Score, CFB (Change from baseline), Q3 / SGRQ-C Questionnaire - Total Score, Observed, Max / SGRQ-C Questionnaire - Total Score, Observed, Mean ± SD / SGRQ-C Questionnaire - Total Score, Observed, Median / SGRQ-C Questionnaire - Total Score, Observed, Min / SGRQ-C Questionnaire - Total Score, Observed, Q1 / SGRQ-C Questionnaire - Total Score, Observed, Q3: Week 16, 150 mg BID", "excerpt": "The SGRQ-C questionnaire was developed from the SGRQ which was designed to measure health impairment in patients with asthma and COPD. The SGRQ-C is a shorter version (40 items compared with 50 items in SGRQ) derived from the original version following detailed analysis of data from large studies in COPD. The FDA has stated that the SGRQ-C is acceptable for use as either a co-primary endpoint or as a secondary endpoint providing supporting evidence of efficacy in a clinical trial. In this study, assessment of SGRQ-C was a secondary endpoint.\nThe SGRQ-C total score is made up of three components: (1) symptoms frequency and severity of symptoms; (2) activity effect of disease on common daily physical activities; and (3) impacts psychosocial effects of the disease.\nThe threshold for a clinically significant difference between groups of participants and for changes within groups of participants was four units."}, "[4]": {"settings": "<50% AEC reduction at Week 16 (N = 4)"}, "[5]": {"settings": ">=50% AEC reduction at Week 16 (N = 3)"}},
  "note": "Where two headings read alike, the source gives them in different places.",
  "data": [
    {"smiles": "CCCN[C@@H]1CCc2nc(N)sc2C1", "note": "[Dexpramipexole, (6R)-2-amino-4,5,6,7-tetrahydro-6-(propylamino)benzothiazole]", "values": [
      {"measurement": "safety profile", "setting": "[1]", "result": "favorable safety profile"},
      {"measurement": "reductions of eosinophils in blood and airways", "setting": "[2]", "result": "≤ 80", "unit": "%"},
      {"measurement": "SGRQ-C total score, decrease compared to baseline", "setting": "[3]; AECR≥0.5 patients, 16 weeks", "result": 12.08, "unit": "points"},
      {"measurement": "SGRQ-C Questionnaire - Total Score, CFB (Change from baseline), Max", "setting": "[3]; [4]", "result": 3.9},
      {"measurement": "SGRQ-C Questionnaire - Total Score, CFB (Change from baseline), Mean ± SD", "setting": "[3]; [4]", "result": "−4.15 ± 6.817"},
      {"measurement": "SGRQ-C Questionnaire - Total Score, CFB (Change from baseline), Median", "setting": "[3]; [4]", "result": "−5.18"},
      {"measurement": "SGRQ-C Questionnaire - Total Score, CFB (Change from baseline), Min", "setting": "[3]; [4]", "result": "−10.1"},
      {"measurement": "SGRQ-C Questionnaire - Total Score, CFB (Change from baseline), Q1", "setting": "[3]; [4]", "result": "−9.8"},
      {"measurement": "SGRQ-C Questionnaire - Total Score, CFB (Change from baseline), Q3", "setting": "[3]; [4]", "result": 1.5},
      {"measurement": "SGRQ-C Questionnaire - Total Score, Observed, Max", "setting": "[3]; [4]", "result": 63.2},
      {"measurement": "SGRQ-C Questionnaire - Total Score, Observed, Mean ± SD", "setting": "[3]; [4]", "result": "45.45 ± 19.893"},
      {"measurement": "SGRQ-C Questionnaire - Total Score, Observed, Median", "setting": "[3]; [4]", "result": 50.64},
      {"measurement": "SGRQ-C Questionnaire - Total Score, Observed, Min", "setting": "[3]; [4]", "result": 17.3},
      {"measurement": "SGRQ-C Questionnaire - Total Score, Observed, Q1", "setting": "[3]; [4]", "result": 32.1},
      {"measurement": "SGRQ-C Questionnaire - Total Score, Observed, Q3", "setting": "[3]; [4]", "result": 58.8},
      {"measurement": "SGRQ-C Questionnaire - Total Score, CFB (Change from baseline), Max", "setting": "[3]; [5]", "result": "−6.2"},
      {"measurement": "SGRQ-C Questionnaire - Total Score, CFB (Change from baseline), Mean ± SD", "setting": "[3]; [5]", "result": "−12.08 ± 5.544"},
      {"measurement": "SGRQ-C Questionnaire - Total Score, CFB (Change from baseline), Median", "setting": "[3]; [5]", "result": "−12.76"},
      {"measurement": "SGRQ-C Questionnaire - Total Score, CFB (Change from baseline), Min", "setting": "[3]; [5]", "result": "−17.2"},
      {"measurement": "SGRQ-C Questionnaire - Total Score, CFB (Change from baseline), Q1", "setting": "[3]; [5]", "result": "−17.2"},
      {"measurement": "SGRQ-C Questionnaire - Total Score, CFB (Change from baseline), Q3", "setting": "[3]; [5]", "result": "−6.2"},
      {"measurement": "SGRQ-C Questionnaire - Total Score, Observed, Max", "setting": "[3]; [5]", "result": 45.0},
      {"measurement": "SGRQ-C Questionnaire - Total Score, Observed, Mean ± SD", "setting": "[3]; [5]", "result": "40.39 ± 7.250"},
      {"measurement": "SGRQ-C Questionnaire - Total Score, Observed, Median", "setting": "[3]; [5]", "result": 44.09},
      {"measurement": "SGRQ-C Questionnaire - Total Score, Observed, Min", "setting": "[3]; [5]", "result": 32.0},
      {"measurement": "SGRQ-C Questionnaire - Total Score, Observed, Q1", "setting": "[3]; [5]", "result": 32.0},
      {"measurement": "SGRQ-C Questionnaire - Total Score, Observed, Q3", "setting": "[3]; [5]", "result": 45.0}
    ]}
  ]
}
